Legend:
NEDD4-1 HECT domain = target: T1, NEDD4-1 HECT domain (Homo sapiens, UniProt P46934); test: Covalent labeling of NEDD4-1 HECT domain (gel filtration, whole protein ESI-MS); type: binding; details: compound 100 μM, NEDD4-1 HECT 10 μM, 4 h
T1 construct: to elute NEDD4-1 HECT domain (50 mM HEPES, 150 mM NaCl, 0.1 mM EDTA 1 mM DTT); GST (N, cleaved yes); made in house; host or cells: E. coli BL21
T1 sequence (P46934 with tags, fused parts or gaps): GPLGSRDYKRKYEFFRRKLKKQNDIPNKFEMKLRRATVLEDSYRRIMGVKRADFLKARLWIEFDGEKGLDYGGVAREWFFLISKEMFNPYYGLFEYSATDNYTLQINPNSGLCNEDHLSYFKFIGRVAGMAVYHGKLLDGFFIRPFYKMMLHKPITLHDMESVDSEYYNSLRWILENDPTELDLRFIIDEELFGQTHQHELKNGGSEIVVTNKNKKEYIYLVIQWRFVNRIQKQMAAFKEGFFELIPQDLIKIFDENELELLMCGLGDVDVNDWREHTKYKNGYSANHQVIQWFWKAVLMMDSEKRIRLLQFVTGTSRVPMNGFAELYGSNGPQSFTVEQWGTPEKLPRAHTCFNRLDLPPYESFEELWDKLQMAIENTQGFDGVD
Method: 10 μM of NEDD4-1 HECT domain in 50 mM HEPES 150 mM NaCl 0.1 mM EDTA 1 mM DTT pH 7.5 was treated with a mixture of ten fragments (from 10 mM each DMSO stock solution mixtures; final concentrations: 100 μM of each fragment, and 1% DMSO). Fragment structures and mixture compositions were the same as reported previously. The reaction mixture was incubated for 4 h at 23° C. before being passed through Zeba gel filtration columns (Thermo, 7K MWCO) to remove unreacted fragments. The protein solution was then immediately analyzed by whole protein LC/ESI-MS.
Accurate-mass data were obtained on an Agilent 6210A LC-TOF mass spectrometer in positive ion mode using electrospray ionization. Samples were chromatographed on the LC-TOF instrument using a Poroshell 120 EC-C18 HPLC column (2.1*50 mm, 2.7 micron), an Agilent Series 1200 HPLC binary pump, and an Agilent Series 1200 autoinjector. The HPLC column was held at 45° C. and the autosampler was held at 8° C. Mobile Phase A was a solution of 0.1% formic acid in water:acetonitrile (19:1). Mobile Phase B was a solution of 0.1% formic acid in acetonitrile. The flow rate was set to 250 μL/min. The gradient used was 0% B for 2 minutes, ramping linearly to 90% B from 2 minutes to 5 minutes, holding at 90% B from 5 minutes to 7 minutes, and then returning to 0% B at 7.1 minutes. The column was allowed to equilibrate for 2.7 minutes before the next injection was initiated. The eluent from the column was diverted to waste for the first 2 minutes. The spectra were acquired from 301 to 3200 daltons using a gas temperature of 340° C., a gas flow of 7 liters/min, and the nebulizer gas at 35 psi. The following voltages were used: capillary 4200 V, fragmentor 230V, skimmer 64V, and octapole RF peak 250V. Spectra were acquired at a rate of 1 spectra/sec. The data was processed using MassHunter software version B.02.00. Maximum entropy deconvolutions were performed with a Mass Step of 1, S/N Threshold of 30, Average Mass at 90% of Peak Height, and 5 Charge States Minimum.
10 μM of NEDD4-1 HECT domain in 50 mM HEPES 150 mM NaCl 0.1 mM EDTA 1 mM DTT pH 7.5 was treated with 1 mM of inhibitor 1 or 2 (from 100 mM DMSO stock solution; final concentrations: 1 mM of inhibitor, 1% DMSO, and 0.2% CHAPS to solubilize the inhibitors at 1 mM). The reaction mixture was incubated for 4 h at 23° C. before being passed through Zeba gel filtration columns (Thermo, 7K MWCO) to remove unreacted inhibitor. The protein solution was then immediately used for crystallization or enzymatic assay.

papain [1] = target: T2, papain (Carica papaya, UniProt P00784); test: Papain activity assay (Cbz-Gly-ONp, kinact/KI); type: biochemical
T2 construct: purchased Sigma P4762
T2 sequence (P00784 134-345): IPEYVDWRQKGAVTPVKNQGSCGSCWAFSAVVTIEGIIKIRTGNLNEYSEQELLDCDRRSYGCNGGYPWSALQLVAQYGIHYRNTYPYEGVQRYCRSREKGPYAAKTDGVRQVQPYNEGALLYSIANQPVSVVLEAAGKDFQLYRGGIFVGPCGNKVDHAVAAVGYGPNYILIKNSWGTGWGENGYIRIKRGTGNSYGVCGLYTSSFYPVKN
Method: We subsequently tested compounds 6-8 in an enzymatic assay to confirm that they inhibited papain in the concentration and time dependent manner that is characteristic of irreversible inhibitors.^18 Using assay conditions previously described for papain,^17 we determined kinact/K1 values for compounds 6-8 (FIGS. 4 and 10).
Papain (4.8 μM) in 50 mM Na3PO4 2 mM EDTA was preactivated with 1 mM DTT for 30 min. Activated papain (3.84 μM) in 4:1 mixture of 50 mM Na3PO4, 2 mM EDTA at pH 6.2 and acetronitrile was then preincubated for 1 h with varying concentrations of the electrophilic fragment. Every 10 min, 10 μL of the reaction mixture was added to a well of 96-well plate containing 100 μL of 4:1 50 mM Na3PO4 2 mM EDTA pH 6.2:acetronitrile with 400 μM Cbz-Gly-ONp. p-Nitrophenol product formation was monitored by absorbance at 340 nm (£: 6800 M-1 cm-1) with a Biotek Synergy 4 plate reader. All reactions were performed in duplicate. Product concentration versus time was plotted with GraphPad Prism software and the initial slope was calculated to determine enzymatic activity (E). The values of kinact/KI for each inhibitor were then determined according to the method of Kitz and Wilson.23 Briefly, the slopes of the plots of ln(100*Einhibited/Euninhibited) vs. time were used to determine the pseudo-first order inhibition constant kobs for a given concentration of a given inhibitor. […]

papain [2] = target: T2, papain; test: Irreversible tethering screening assay (whole protein ESI-MS) against papain; type: binding
Method: Papain (10 μM) was incubated for one hour with ten reaction mixtures that each contained ten electrophilic fragments (100 μM each) (Table S2).
Hits were defined as any compounds which labeled papain more than 50%. […] Such selectivity is impressive, given a 9-fold excess of other cysteine reactive electrophiles over compounds 6, 7, and 8. […] This is despite the fact that these reaction mixtures contain a 100-fold excess of cysteine reactive electrophiles relative to the highly reactive catalytic cysteine of papain. […]
10 μM of papain (Sigma P4762), UbcH7 (recombinantly expressed) or USPO8 (recombinantly expressed) in 50 mM HEPES 150 mM NaCl 0.1 mM EDTA pH 7.5 was treated with a mixture of ten fragments (Table S2) (10 mM DMSO stock solutions, final concentrations: 100 μM of each fragment, and 1% DMSO). […] The protein solution was then immediately analyzed by whole protein LC/ESI-MS. […]
200 μL of papain and compound 6-8 adducts were prepared separately as described above in “irreversible tethering screening assay” by incubating papain (10 μM) with 100 μM of compounds 6-8 in 1% DMSO 50 mM HEPES 150 mM NaCl 0.1 mM EDTA pH 7.5. […] The cassettes were dialyzed against 500 mL of 50 mM HEPES 150 Mm NaCl 0.1 mM EDTA pH 7.5 for 16 h, then 20 μL were extracted and analyzed by ESI-MS. […]

[3] = NMR rate studies: pseudo-first order reaction with N-acetylcysteine methyl ester; type: physicochemical; details: electrophile 10 mM, N-acetyl cysteine methyl ester 78 mM, 2:1 deuterated PBS:DMSO-d6, pD 8, NMR
Text: We further validated the utility of electrophile 3 as a thiol-reactive tether by making a library of one hundred structurally diverse drug-like fragments 6-105 containing this electrophile. The library was constructed with an HBTU amide coupling with commercially available carboxylic acid fragments (FIG. 2A). The acids were selected with “rule of three” criteria^15 and a subsequent diversity analysis. We measured the reaction rates for the first fifty fragments to confirm that this library would have balanced cysteine reactivity and could be used for irreversible tethering (FIG. 2B).
N-Acetyl cysteine methyl ester was dissolved in 2:1 deuterated PBS:DMSO-d6 (78 mM) with 10 mM CH2Cl2 as an internal standard. The electrophile (10 mM) was then added immediately prior to acquiring spectra. H1 spectra were taken every 30 s for 30 min (or every 4 s for 5 min for highly reactive compounds 1c and 2a-c). The integrals of the vinyl peaks were used to determine the concentration of the electrophile over time. The natural logarithm of the concentration of the electrophile versus time was then plotted using GraphPad Prism software. The linear slope of this plot was used to determine the pseudofirst order rate constant. Deuterated PBS recipe: 20 mM Na3PO4, 50 mM NaCl in D2O was adjusted to pD 8 with DC1 solution.

[4] = target: T3, human rhinovirus 3C protease (GST-HRV3C, PreScission protease) (Human rhinovirus 14, UniProt P03303); test: Irreversible tethering counter-screen (ESI-MS) against HRV3C protease; type: binding; details: mixtures of ten fragments 100 μM each, 1 h
T3 construct: made in house; host or cells: E. coli Rosetta (DE3)pLysS
Method: FIG. 28A, FIG. 28B, FIG. 28C and FIG. 28D. Counterscreen of compound 6 against the deubiquitinase USPO8 and Human Rhinovirus (HRV) 3C protease, both of which have catalytic cysteines. Compound 6 at 100 μM in 1% DMSO was incubated with the catalytic domain of the indicated cysteine protease (10 μM) for 1 h, followed by gel filtration and whole protein ESI-MS.
To further test the specificity of the developed irreversible tethering system, we conducted a counter-screen of the same set of 100 compounds (10 mixtures of 10 compounds each) against three other enzymes: human rhinovirus 3C protease, the deubiquitinase USP08, and the E2 ubiquitin-conjugating enzyme UbcH7. […] The molecular weight of GST-HRV3C protease is 47566.72 Da and its amino acid sequence is provided as (SEQ ID NO:2).
10 μM of papain (Sigma P4762), UbcH7 (recombinantly expressed) or USPO8 (recombinantly expressed) in 50 mM HEPES 150 mM NaCl 0.1 mM EDTA pH 7.5 was treated with a mixture of ten fragments (Table S2) (10 mM DMSO stock solutions, final concentrations: 100 μM of each fragment, and 1% DMSO). The reaction mixture was incubated for 1 h or 4 h at 23° C. before being passed through Zeba gel filtration columns (Thermo, 7K MWCO) to remove unreacted fragments. The protein solution was then immediately analyzed by whole protein LC/ESI-MS.
Accurate-mass data were obtained on an Agilent 6210A LC-TOF mass spectrometer in positive ion mode using electrospray ionization. Samples were chromatographed on the LC-TOF instrument using a Poroshell 120 EC-C18 HPLC column (2.1*50 mm, 2.7 micron), an Agilent Series 1200 HPLC binary pump, and an Agilent Series 1200 autoinjector. The HPLC column was held at 45° C. and the autosampler was held at 8° C. Mobile Phase A was a solution of 0.1% formic acid in water:acetonitrile (19:1). Mobile Phase B was a solution of 0.1% formic acid in acetonitrile. The flow rate was set to 250 μL/min. The gradient used was 0% B for 2 minutes, ramping linearly to 90% B from 2 minutes to 5 minutes, holding at 90% B from 5 minutes to 7 minutes, and then returning to 0% B at 7.1 minutes. […]

T3 sequence (P03303 1538-1719, added parts left off): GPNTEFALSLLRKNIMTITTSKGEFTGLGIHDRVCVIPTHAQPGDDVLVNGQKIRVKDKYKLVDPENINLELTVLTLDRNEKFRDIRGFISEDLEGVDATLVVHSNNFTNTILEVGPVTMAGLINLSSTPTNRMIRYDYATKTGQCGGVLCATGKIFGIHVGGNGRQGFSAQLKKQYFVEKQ

Compound | k pseudo-first order [3] | labeling of HRV3C protease [4] | other results
CCOc1ccc2c(c1)c(C(=O)NC/C=C/C(=O)OC)c(C)n2C [Compound 10, Methyl(E)-4-(5-ethoxy-1,2-dimethyl-1H-indole-3-carboxamido)but-2-enoate] | – | – | labeling of NEDD4-1 HECT domain (qualitative) (NEDD4-1 HECT domain): did not label NEDD4-1
COC(=O)/C=C/CNC(=O)c1ccc(C2CCCO2)s1 (centres unmarked) [Compound 19] | 0.0004396 s⁻¹ | – | fold less potent at inhibiting papain than the least potent inhibitor 6 (papain [1]): ~10 fold; fold less potent at inhibiting papain than the most potent inhibitor 7 (papain [1]): ~33 fold; covalent labeling of papain (papain [2]; papain 10 μM, mixtures of ten fragments 100 μM each, 1 h, hit = labeled papain more than 50%): did not label papain
COC(=O)/C=C/CNC(=O)c1csc(-c2cccs2)n1 [Compound 22] | 0.0007605 s⁻¹ | ~35% | –
COC(=O)/C=C/CNC(=O)c1ccc2ccccc2n1 [Compound 32] | 0.0006296 s⁻¹ | ~20% | –
COC(=O)/C=C/CNC(=O)c1cc2cc(Cl)cc(OC)c2o1 [Compound 98] | – | ~20% | –
COC(=O)/C=C/CNC(=O)[C@H](Cc1ccccc1)NC(C)=O [Compound 106, reference compound] | – | – | effect of pretreatment of papain on subsequent labeling by compounds 6-8 (papain [2]; 100 μM 106 for 1 h, then 100 μM of 6, 7 or 8): blocked subsequent labeling by compounds 6-8

From patent US10273208B2, “Screening methods for the binding affinity of chemical entities to biological molecules and NEDD4-1 inhibitors identified by the screening methods” (Northwestern University, priority 2014, dated 2019)
